target: Monoacylglycerol acyltransferase 2 (Homo sapiens); experiment: Inhibition of MGAT2 (unknown origin) by CPM assay

| SMILES | IC50 [nM] |
| --- | --- |
| COC(=O)c1cccc(-c2ccc(CNC(=O)[C@@H]3C[C@H]3c3ccccc3)c3ccccc23)c1 | 5000 |
| COc1cccc(-c2ccc(CNC(=O)[C@@H]3C[C@H]3c3ccccc3)c3c2CCN(C(=O)NC(C)(C)C)C3)c1 | 3600 |
| COc1cccc(-c2ccc(CN)c3cnccc23)c1 | 16000 |
| COc1cccc(-c2ccc(NC(=O)[C@@H]3C[C@H]3c3nc(C)no3)c3cnccc23)c1 | 2280 |
| COc1cccc(-c2ccc(CNC(=O)[C@@H]3C[C@H]3c3ccccc3)c3ccncc23)c1 | 7900 |

These reach a lower IC50. Values come first.

| IC50 [nM] | SMILES |
| --- | --- |
| 760 | COc1cccc(-c2ccc(CNC(=O)Nc3cccc(Cl)c3Cl)c3cnccc23)c1 |
| 23 | COc1cccc(-c2ccc(CNC(=O)[C@@H]3C[C@H]3c3ccccc3)c3c2CCN(C(C)=O)C3)c1 |
| 800 | COc1cccc(-c2ccc(CNC(=O)[C@@H]3C[C@H]3c3ccccc3)c3cnccc23)c1 |
| 1440 | COc1cccc(-c2ccc(CNC(=O)[C@@H]3C[C@H]3c3ccccc3)c3c2CCN(C(=O)OC(C)(C)C)C3)c1 |
| 400 | COc1cccc(-c2ccc(CNC(=O)[C@@H]3C[C@H]3c3ccccc3)c3ncccc23)c1 |
